Measurements as given in ChEMBL document CHEMBL4825686, “HTS-based discovery and optimization of novel positive allosteric modulators of the α7 nicotinic acetylcholine receptor” (Eur J Med Chem, 2021).
Activity calls are given as the source filed them. No cut-off for these calls is given here.

What was measured:
[1] = Mutagenicity in Salmonella typhimurium TA100 in presence of rat liver S9 fraction by AMES test; type: toxicity, subcellular; conditions: salmonella enterica subsp. enterica serovar typhimurium
[2] = target: Neuronal acetylcholine receptor; alpha3/beta4 (Homo sapiens) (UniProt P30926+P32297); experiment: Agonist activity at alpha3beta4 nAChR (unknown origin) upto 30 uM by automated Q-patch clamp assay; conditions: dose microM <=30
[3] = Ratio of drug level in Wistar rat brain to plasma at 10 mg/kg, ip measured after 35 mins by HPLC-MS/MS analysis; type: ADME, organism-based; conditions: read-out: BPR
[4] = Ratio of drug level in Wistar rat brain to plasma at 1 mg/kg, ip measured after 35 mins by HPLC-MS/MS analysis; type: ADME, organism-based; conditions: read-out: BPR
[5] = Apparent permeability across apical to basolateral side in vinblastine-treated human Caco-2 cells expressing P-glycoprotein at 10 uM incubated for 120 mins by HPLC analysis; type: ADME
[6] = target: GABA-A receptor; alpha-5/beta-3/gamma-2 (Homo sapiens) (UniProt P18507+P28472+P31644); experiment: Inhibition of human alpha5beta3gamma2 GABAA receptor expressed in HEK293 cells assessed as inhibition of GABA induced channel current response at 1 to 10 uM measured after 7 to 10 mins at -80 mV holding potential by whole-cell patch clamp assay; type: cell-based; conditions: dose 1-10 µM, time 7-10 min
[7] = target: GABA-A receptor; alpha-1/beta-3/gamma-2 (Homo sapiens) (UniProt P14867+P18507+P28472); experiment: Activation of human alpha1beta3gamma2 GABAA receptor expressed in HEK293 cells assessed as enhancement of GABA induced channel current response at 1 to 10 uM measured after 7 to 10 mins at -80 mV holding potential by whole-cell patch clamp assay; type: cell-based; conditions: dose 1-10 µM, time 7-10 min
[8] = system: Mus musculus; experiment: Cognitive enhancing effect in scopolamine-induced amnesia NMRI mouse model assessed as increase in recognition index at 1 to 10 mg/kg, ip administered 30 mins prior to scopolamine injection by Y-maze test; type: functional, organism-based; conditions: dose 1-10 mg/kg
[9] = target: T1, Neuronal acetylcholine receptor subunit alpha-7 (Homo sapiens, UniProt P36544); experiment: Positive allosteric modulator activity at human alpha7 nAChR expressed in Flp-In-HEK293 cells co-expressing RIC-3 assessed as potentiation of PNU282987-induced calcium influx measured after 10 mins by FLIPR assay; type: cell-based, Flp-In-293; conditions: read-out: EC50
T1 sequence (P36544 whole entry): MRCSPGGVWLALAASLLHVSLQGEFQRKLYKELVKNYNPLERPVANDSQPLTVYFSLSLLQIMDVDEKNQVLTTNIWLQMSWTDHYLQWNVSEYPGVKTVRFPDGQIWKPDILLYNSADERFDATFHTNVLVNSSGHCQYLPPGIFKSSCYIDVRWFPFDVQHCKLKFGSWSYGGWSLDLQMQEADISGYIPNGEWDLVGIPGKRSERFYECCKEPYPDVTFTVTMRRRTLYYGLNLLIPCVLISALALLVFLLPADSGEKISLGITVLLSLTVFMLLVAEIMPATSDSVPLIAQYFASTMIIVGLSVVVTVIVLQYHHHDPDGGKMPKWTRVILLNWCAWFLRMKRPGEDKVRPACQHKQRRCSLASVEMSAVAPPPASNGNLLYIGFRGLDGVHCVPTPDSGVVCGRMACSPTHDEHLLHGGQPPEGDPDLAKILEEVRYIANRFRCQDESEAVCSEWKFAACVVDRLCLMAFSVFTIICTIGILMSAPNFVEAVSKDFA

[10] = Metabolic stability in Wistar rat liver microsomes assessed as intrinsic clearance at 1 uM measured per mg protein upto 40 mins; type: ADME, Microsome; conditions: read-out: CLH
[11] = target: 5-hydroxytryptamine receptor 2B (Homo sapiens) (UniProt P41595); experiment: Binding affinity to human recombinant 5-HT2B receptor assessed as displacement of radioligand at 10 uM by displacement binding assay
Sequence of 5-hydroxytryptamine receptor 2B (Homo sapiens) (P41595 whole entry): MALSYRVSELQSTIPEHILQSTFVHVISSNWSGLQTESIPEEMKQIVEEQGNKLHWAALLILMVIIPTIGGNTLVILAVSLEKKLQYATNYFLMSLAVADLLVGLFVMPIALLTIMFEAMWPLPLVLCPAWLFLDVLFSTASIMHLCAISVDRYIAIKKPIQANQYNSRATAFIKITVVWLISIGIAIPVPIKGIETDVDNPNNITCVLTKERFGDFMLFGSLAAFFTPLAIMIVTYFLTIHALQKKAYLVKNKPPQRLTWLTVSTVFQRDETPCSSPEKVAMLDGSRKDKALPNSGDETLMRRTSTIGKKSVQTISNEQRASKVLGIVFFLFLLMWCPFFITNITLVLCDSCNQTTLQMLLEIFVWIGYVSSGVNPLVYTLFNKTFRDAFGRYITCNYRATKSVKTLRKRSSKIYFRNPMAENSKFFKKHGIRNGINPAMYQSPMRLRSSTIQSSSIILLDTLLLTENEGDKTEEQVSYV

[12] = target: T2, Glutamate NMDA receptor (Rattus norvegicus) (UniProt P35439+Q00959+Q00960+Q00961+Q62645+Q8VHN2+Q9R1M7); experiment: Displacement of [3H]MDL105519 from NMDA receptor in Wistar rat cerebral cortex at 10 uM by displacement binding assay; type: tissue-based
[13] = target: T2, Glutamate NMDA receptor (Rattus norvegicus); experiment: Displacement of [3H]CGP39653 from NMDA receptor in Wistar rat cerebral cortex at 10 uM by displacement binding assay; type: tissue-based
[14] = target: GABA-A receptor; anion channel (Rattus norvegicus) (UniProt O09028+P15431+P18506+P18508+P19969+P20236+P23574+P23576+P28471+P28473+P30191+P62813+P63079+P63138+Q91ZM7+Q9ES14); experiment: Displacement of [3H]muscimol from GABAA receptor in Wistar rat brain without cerebellum at 10 uM by displacement binding assay; type: tissue-based
[15] = Efflux ratio of apparent permeability from basolateral to apical side over apical to basolateral side in vinblastine-treated human Caco-2 cells expressing P-glycoprotein at 10 uM incubated for 120 mins by HPLC analysis; type: ADME
[16] = Drug uptake in NMRI mouse brain at 0.3 mg/kg, ip measured after 1 hr by HPLC-MS/MS analysis; type: ADME, organism-based; conditions: read-out: Ct
[17] = Drug uptake in NMRI mouse brain at 1 mg/kg, ip measured after 1 hr by HPLC-MS/MS analysis; type: ADME, organism-based; conditions: read-out: Ct
[18] = Drug uptake in NMRI mouse brain at 3 mg/kg, ip measured after 1 hr by HPLC-MS/MS analysis; type: ADME, organism-based; conditions: read-out: Ct
[19] = Plasma concentration in NMRI mouse at 0.3 mg/kg, ip measured after 1 hr by HPLC-MS/MS analysis; type: ADME, organism-based
[20] = Plasma concentration in NMRI mouse at 1 mg/kg, ip measured after 1 hr by HPLC-MS/MS analysis; type: ADME, organism-based
[21] = Ratio of drug level in NMRI mouse brain to plasma at 0.1 mg/kg, ip measured after 1 hr by HPLC-MS/MS analysis; type: ADME, organism-based; conditions: read-out: BPR
[22] = Ratio of drug level in NMRI mouse brain to plasma at 1 mg/kg, ip measured after 1 hr by HPLC-MS/MS analysis; type: ADME, organism-based; conditions: read-out: BPR
[23] = Drug uptake in Wistar rat brain at 1 mg/kg, ip measured after 35 mins by HPLC-MS/MS analysis; type: ADME, organism-based; conditions: read-out: Ct
[24] = Drug uptake in Wistar rat brain at 3 mg/kg, ip measured after 35 mins by HPLC-MS/MS analysis; type: ADME, organism-based; conditions: read-out: Ct
[25] = Plasma concentration in Wistar rat at 1 mg/kg, ip measured after 35 mins by HPLC-MS/MS analysis; type: ADME, organism-based
[26] = Plasma concentration in Wistar rat at 10 mg/kg, ip measured after 35 mins by HPLC-MS/MS analysis; type: ADME, organism-based
[27] = Mutagenicity in Salmonella typhimurium TA98 in presence of rat liver S9 fraction by AMES test; type: toxicity, subcellular; conditions: salmonella enterica subsp. enterica serovar typhimurium
[28] = Mutagenicity in Salmonella typhimurium TA1537 in presence of rat liver S9 fraction by AMES test; type: toxicity, subcellular; conditions: salmonella enterica subsp. enterica serovar typhimurium
[29] = Mutagenicity in Salmonella typhimurium TA1537 in absence of rat liver S9 fraction by AMES test; type: toxicity; conditions: salmonella enterica subsp. enterica serovar typhimurium
[30] = Mutagenicity in Escherichia coli WP2 uvrA in presence of rat liver S9 fraction by AMES test; type: toxicity, subcellular
[31] = Lipophilicity, logP of the compound; type: physicochemical; conditions: octanol/water
[32] = target: T1, Neuronal acetylcholine receptor subunit alpha-7; experiment: Positive allosteric modulation of human alpha7 nAChR expressed in HEK293 cells assessed as increase in peak current amplitude measured after 6 to 10 mins at -80 mV holding potential by automated whole cell patch clamp analysis; type: cell-based

Cc1ccc(CN2CCN(C(=O)C(=O)Nc3ccc4c(ccn4C)c3)CC2)cc1
Activity [1]: Non-Toxic | Activity [2]: inactive | Kp at 35 min [3]: 4.01 | Kp at 35 min [4]: 4.93 | Papp A→B at 2 h, 10 µM [5]: 30.7 ×10⁻⁶ cm/s | inhibition [6]: < 7% | Activity [7]: < 7% | Activity [8]: Active | EC50 [9]: 90 nM | microsomal CLint at 1 µM [10]: 158 µL/min/mg | inhibition [11]: 98% | inhibition [12]: < 15% | inhibition [13]: < 15% | inhibition [14]: < 15% | efflux ratio at 2 h, 10 µM [15]: 0.7 | concentration at 1 h [16]: 5.5 nM | concentration at 1 h [17]: 39 nM | concentration at 1 h [18]: 64 nM | concentration at 1 h [19]: 4.3 nM | concentration at 1 h [20]: 21 nM | Kp at 1 h [21]: 1.32 | Kp at 1 h [22]: 1.88 | concentration at 35 min [23]: 135 nM | concentration at 35 min [24]: 207 nM | concentration at 35 min [25]: 28 nM | concentration at 35 min [26]: 196 nM | Activity [27]: Non-Toxic | Activity [28]: Non-Toxic | Activity [29]: Non-Toxic | Activity [30]: Non-Toxic | logP [31]: 3.7 | EC50 [32]: 710 nM
